Entries after “also recorded” stand apart in the source; their conditions may differ. Where two headings read alike, the source gives them in different places.
T1: VapC (Klebsiella pneumoniae subsp. pneumoniae, UniProt A6TG81)
T1 sequence (A6TG81 1-127): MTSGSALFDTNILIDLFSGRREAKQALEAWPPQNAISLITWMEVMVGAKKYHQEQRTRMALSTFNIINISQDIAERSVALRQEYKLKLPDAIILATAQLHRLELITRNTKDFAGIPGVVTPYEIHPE

T2: VapBC complex (Klebsiella pneumoniae subsp. pneumoniae, UniProt A6TG81)
T2 sequence (A6TG81 1-127): T1 sequence (A6TG81 1-127)
T2 sequence (A6TG80 1-82 partner): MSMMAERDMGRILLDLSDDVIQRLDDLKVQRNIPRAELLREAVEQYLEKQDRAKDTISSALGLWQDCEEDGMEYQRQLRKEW


Assays:
VapC = molecular target: T1, VapC; test: Isothermal titration calorimetry (ITC), binding to VapC
Method: ITC was performed using MicroCal200 (GE Healthcare). The concentrations of protein and DNA were determined using NanoDrop (Thermo) at 280 nm and 260 nm, respectively. Stock solutions of peptides and small molecules were prepared at appropriate concentrations. Titration was performed at 25° C. The data were calculated by subtracting the background and fitted to a single-site binding model using the provided source-based software with MicroCal200.

free VapC = test: Effect on RNase activity of free VapC; format: biochemical, Klebsiella pneumoniae; details: substance added to free VapC
Method: (§1) The RNase activity of VapC and VapC mutants was confirmed using an RNase Alert Kit (Integrated DNA Technologies, Inc.). In this analysis, each well contained 50 pm of synthetic RNA with a fluorophore at one end and a quencher group at the other end. The quencher was separated when the prepared RNA was contacted by RNase. Then, fluorescence (RFU) generated during the 1 hour reaction period was detected using a SPECTRAmax GEMINI XS spectrometer (Molecular Devices) at 490 nm (excitation wavelength) and 520 nm (emission wavelength), respectively. For this analysis, the purified VapC and VapC mutants were treated with 10 mM EDTA to remove metal ions and exchanged with a purification buffer containing 10 mM Mg^2+. In each experiment, the concentrations of both VapC and VapC mutants were 10 μM. To prevent contamination, 40 units of RiboLock (Thermoscientific) were added to each well.
However, if the peptide contains the residues that interact with the nucleic acid binding site of VapC, which is the active site of VapC, the destructive ability is suppressed. Accordingly, in this example, the effect of the peptide of the present invention on the activity of free VapC was analyzed.
Through three tests, a total of 400 compounds were narrowed down to 25 according to the inhibitory efficacy ranking. […]

VapBC complex = molecular target: T2, VapBC complex; test: VapBC complex disruption assay (RNase activity of VapC released from the complex); format: biochemical; details: for VapBC complex disruption efficacy: 1 μM compound added to 10 μM VapBC complex, compared with peptides at 100 μM; for IC50: inhibition curves, 10 μM VapBC complex; for VapBC complex disruption efficacy (RNase activity relative to VapC): 100 μM peptide added to 10 μM VapBC complex
Method: as §1
In this example, the peptide (100 μM) synthesized in Example 1 was added to the VapBC complex (10 μM) and the RFU of the activated VapC toxin was measured. Other experimental protocols were the same as those for the RNase activity test of VapC and VapC mutants (Experimental Method 5). Upon addition of the peptide of the present invention to the VapBC complex, the inhibitory efficacy of the peptide can be estimated by measuring the RNase activity generated by the free VapC released by the disruption of the VapBC complex.
Using a similar analysis method as in the design of peptides that activate VapC, the inhibitory effect of the compounds was ranked according to the degree of RNase activity by the free VapC released due to the disruption of the VapBC complex. That is, the small molecules were added to the VapBC complex (10 μM) and the efficacy of the small molecules to activate VapC was tested. Other experimental protocols were the same as those described for the peptide-induced complex disruption assay (Examples 2 and 3).

[1] = molecular target: Klebsiella pneumoniae VapC toxin (kpn_04186) with N-terminal tag (Klebsiella pneumoniae (MGH78578)); test: ITC, 25 °C, single-site binding model
[2] = 25° C., single-site binding model
[3] = 25° C., single-site binding model, read-out: Kd
[4] = read-out: Kd (affinity to VapC)

| Molecule | TΔS (VapC; 25° C.) [kcal/mol] | ΔG (VapC; 25° C.) [kcal/mol] | ΔH (VapC; 25° C.) [kcal/mol] | n (the binding stoichiometry) (VapC; [2]) | VapBC complex disruption efficacy (RNase activity relative to VapC) (VapBC complex) | Kd (VapC; [4]) [nM] | Kd [1] [nM] | TΔS [1] [kcal/mol] | n (the binding stoichiometry) [1] | ΔH [1] [kcal/mol] | also measured |
| --- | --- | --- | --- | --- | --- | --- | --- | --- | --- | --- | --- |
| NC(=O)NC(=O)CCN1CCC(C(=O)c2ccc(O)cc2)CC1 [Compound 1, N-carbamoyl-3-(4-(4-hydroxybenzoyl)piperidine-1-yl)propanamide] | 1.93 | -6.37 | -8.3 ± 0.03 | 0.98 ± 0.002 | – | – | – | – | – | – | Kd (VapC; [3]): 35 ± 0.4 nM; RNase activity of free VapC after treatment (free VapC): did not affect the RNase activity of VapC; VapBC complex disruption efficacy (VapBC complex): higher efficacy at 1 μM; IC50 (VapBC complex): 420 nM |
| CCC1Oc2cc(S(=O)(=O)N3CCCC(C(=O)Nc4ccc(F)cc4)C3)c(C)cc2NC1=O (stereo not drawn) [Compound 2, 1-((2-ethyl-6-methyl-3-oxo-3,4-dihydro-2H-benzo[b][1,4]oxazine-7-yl)sulfonyl)-N-(4-fluorophenyl)piperidine-3-carboxamide] | 1.39 | -7.71 | -9.1 ± 0.06 | 0.99 ± 0.004 | – | – | – | – | – | – | Kd (VapC; [3]): 22 ± 0.2 nM; RNase activity of free VapC after treatment (free VapC): did not affect the RNase activity of VapC; VapBC complex disruption efficacy (VapBC complex): higher efficacy at 1 μM; IC50 (VapBC complex): 400 nM |
| GMEAARQL [VapB^71-78, Y74A, Q75A] | – | – | – | – | lower efficacy than the VapB peptide in which either one was mutated to alanine | – | – | – | – | – | – |
| GMEAQRQL [VapB^71-78, Y74A] | -4.17 | -17.57 | -13.4 ± 0.02 | 0.99 ± 0.001 | highest efficacy among all the designed peptides; also recorded: higher activity than VapB^71-78 | 170 | – | – | – | – | – |
| GMEYARQL [VapB^71-78, Q75A] | -1.53 | -12.33 | -10.8 ± 0.02 | 0.99 ± 0.001 | higher activity than VapB^71-78 | 150 | – | – | – | – | – |
| GMEYQRQL [VapB^71-78] | -8.4 | -26.3 | -17.9 ± 0.07 | 1.02 ± 0.002 | – | 110 | – | – | – | – | – |
| Klebsiella pneumoniae VapB antitoxin (kpn_04185) | – | – | – | – | – | – | 3 | -16.4 | 0.97 | -28.1 | – |
| GMEAQRQL [Peptide VapB^71-78, Y74A] | – | – | – | – | – | – | 170 | -4.17 | 0.99 | -13.4 | – |
| GMEYQRQL [Peptide VapB^71-78] | – | – | – | – | – | – | 110 | -8.4 | 1.02 | -17.9 | – |
| GMEYARQL [Peptide VapB^71-78, Q75A] | – | – | – | – | – | – | 150 | -1.53 | 0.99 | -10.8 | ΔG [1]: -12.3 kcal/mol |

— US20240101603A1, “ANTIBACTERIAL PEPTIDES AND COMPOUNDS TARGETING TOXIN-ANTITOXIN SYSTEM OF […], AND THEIR USE” (SEOUL NATIONAL UNIVERSITY R&DB FOUNDATION, priority 2021, published 2024)
